# Experiments:
# [1] = The drug is tested on Collinsella intestinalis strain: DSM13280 for biotransformation. The drug concentrations were measured before and after a 12-h incubation by liquid-chromatography-coupled mass spectrometry (LC–MS); conditions: 2 µM
# [2] = The drug is tested on Bacteroides caccae strain: ATCC43185 for biotransformation. The drug concentrations were measured before and after a 12-h incubation by liquid-chromatography-coupled mass spectrometry (LC–MS); conditions: 2 µM
# [3] = The drug is tested on Bacteroides finegoldii strain: DSM17565 for biotransformation. The drug concentrations were measured before and after a 12-h incubation by liquid-chromatography-coupled mass spectrometry (LC–MS); conditions: 2 µM
# [4] = The drug is tested on Bacteroides fragilis strain: ATCC43859 for biotransformation. The drug concentrations were measured before and after a 12-h incubation by liquid-chromatography-coupled mass spectrometry (LC–MS); conditions: 2 µM
# [5] = The drug is tested on Bacteroides uniformis strain: ATCC8492 for biotransformation. The drug concentrations were measured before and after a 12-h incubation by liquid-chromatography-coupled mass spectrometry (LC–MS); conditions: 2 µM
# [6] = The drug is tested on Bacteroides sp. WH2 strain: WH2 for biotransformation. The drug concentrations were measured before and after a 12-h incubation by liquid-chromatography-coupled mass spectrometry (LC–MS); conditions: bacteroides sp. wh2, 12 h, 2 µM
# [7] = The drug is tested on Parabacteroides merdae strain: ATCC43184 for biotransformation. The drug concentrations were measured before and after a 12-h incubation by liquid-chromatography-coupled mass spectrometry (LC–MS); conditions: 2 µM
# [8] = The drug is tested on Anaerococcus hydrogenalis strain: DSM7454 for biotransformation. The drug concentrations were measured before and after a 12-h incubation by liquid-chromatography-coupled mass spectrometry (LC–MS); conditions: 2 µM
# [9] = The drug is tested on Anaerotruncus colihominis strain: DSM17241 for biotransformation. The drug concentrations were measured before and after a 12-h incubation by liquid-chromatography-coupled mass spectrometry (LC–MS); conditions: 2 µM
# [10] = The drug is tested on Clostridium symbiosum strain: ATCC14940 for biotransformation. The drug concentrations were measured before and after a 12-h incubation by liquid-chromatography-coupled mass spectrometry (LC–MS); conditions: 2 µM
# [11] = The drug is tested on Enterococcus faecalis strain: V583 for biotransformation. The drug concentrations were measured before and after a 12-h incubation by liquid-chromatography-coupled mass spectrometry (LC–MS); conditions: 2 µM
# [12] = The drug is tested on Subdoligranulum variabile strain: DSM15176 for biotransformation. The drug concentrations were measured before and after a 12-h incubation by liquid-chromatography-coupled mass spectrometry (LC–MS); conditions: 2 µM
# [13] = The drug is tested on Escherichia coli strain: BW25113 for biotransformation. The drug concentrations were measured before and after a 12-h incubation by liquid-chromatography-coupled mass spectrometry (LC–MS); conditions: 2 µM
# [14] = The drug is tested on Providencia rettgeri strain: DSM1131 for biotransformation. The drug concentrations were measured before and after a 12-h incubation by liquid-chromatography-coupled mass spectrometry (LC–MS); type: ADME; design: dose 2 uM, timepoint 0 vs 12 hours; conditions: 2 µM
# [15] = bacteroides fragilis, 12 h, 2 µM
# Description: The drug is tested on Bacteroides fragilis strain: DS-208 for biotransformation. The drug concentrations were measured before and after a 12-h incubation by liquid-chromatography-coupled mass spectrometry (LC–MS)
# [16] = bacteroides thetaiotaomicron, 12 h, 2 µM
# Description: The drug is tested on Bacteroides thetaiotaomicron strain: VPI-5482 for biotransformation. The drug concentrations were measured before and after a 12-h incubation by liquid-chromatography-coupled mass spectrometry (LC–MS)
# [17] = bacteroides thetaiotaomicron, 12 h, 2 µM; remark: listed apart in the source
# Description: The drug is tested on Bacteroides thetaiotaomicron strain: 7330 for biotransformation. The drug concentrations were measured before and after a 12-h incubation by liquid-chromatography-coupled mass spectrometry (LC–MS)
# [18] = segatella copri, 12 h, 2 µM
# Description: The drug is tested on Prevotella copri strain: DSM18205 for biotransformation. The drug concentrations were measured before and after a 12-h incubation by liquid-chromatography-coupled mass spectrometry (LC–MS)
# [19] = limosilactobacillus reuteri cf48-3a, 12 h, 2 µM
# Description: The drug is tested on Lactobacillus reuteri CF48-3A strain: BEI HM-102 for biotransformation. The drug concentrations were measured before and after a 12-h incubation by liquid-chromatography-coupled mass spectrometry (LC–MS)
# [20] = bacteroides eggerthii, 12 h, 2 µM
# Description: The drug is tested on Bacteroides eggerthii strain: DSM20697 for biotransformation. The drug concentrations were measured before and after a 12-h incubation by liquid-chromatography-coupled mass spectrometry (LC–MS)
Bacterial Biotransformation [1],Bacterial Biotransformation [2],Bacterial Biotransformation [3],Bacterial Biotransformation [4],Bacterial Biotransformation [5],Bacterial Biotransformation [6],Bacterial Biotransformation [7],Bacterial Biotransformation [8],Bacterial Biotransformation [9],Bacterial Biotransformation [10],Bacterial Biotransformation [12],Bacterial Biotransformation [13],Bacterial Biotransformation [14],Bacterial Biotransformation [15],Bacterial Biotransformation [16],Bacterial Biotransformation [17],Bacterial Biotransformation [18],Bacterial Biotransformation [19],SMILES,Bacterial Biotransformation [11],Bacterial Biotransformation [20]
Compound NOT metabolized,Compound NOT metabolized,Compound metabolized,Compound metabolized,Compound metabolized,Compound metabolized,Compound metabolized,Compound metabolized,Compound metabolized,Compound metabolized,Compound metabolized,Compound metabolized,Compound metabolized,Compound metabolized,Compound metabolized,Compound metabolized,Compound metabolized,Compound metabolized,CCCCC1=NC2(CCCC2)C(=O)N1Cc1ccc(-c2ccccc2-c2nnn[nH]2)cc1 [IRBESARTAN],Compound NOT metabolized,
Compound metabolized,,Compound metabolized,Compound NOT metabolized,Compound metabolized,Compound NOT metabolized,Compound NOT metabolized,Compound metabolized,Compound metabolized,Compound metabolized,Compound metabolized,Compound metabolized,Compound metabolized,Compound NOT metabolized,Compound NOT metabolized,Compound NOT metabolized,Compound NOT metabolized,Compound metabolized,C=CC[C@@H]1/C=C(\C)C[C@H](C)C[C@H](OC)[C@H]2O[C@@](O)(C(=O)C(=O)N3CCCC[C@H]3C(=O)O[C@H](/C(C)=C/[C@@H]3CC[C@@H](O)[C@H](OC)C3)[C@H](C)[C@@H](O)CC1=O)[C@H](C)C[C@@H]2OC.O [TACROLIMUS],,Compound metabolized
Compound NOT metabolized,Compound NOT metabolized,Compound NOT metabolized,Compound NOT metabolized,Compound NOT metabolized,Compound NOT metabolized,Compound NOT metabolized,Compound NOT metabolized,Compound NOT metabolized,Compound NOT metabolized,Compound NOT metabolized,Compound NOT metabolized,Compound NOT metabolized,Compound NOT metabolized,Compound NOT metabolized,Compound NOT metabolized,Compound NOT metabolized,Compound NOT metabolized,CC[C@@]1(O)C(=O)OCc2c1cc1n(c2=O)Cc2cc3c(CN(C)C)c(O)ccc3nc2-1 [TOPOTECAN],,
Compound NOT metabolized,Compound NOT metabolized,Compound NOT metabolized,Compound NOT metabolized,Compound NOT metabolized,Compound NOT metabolized,Compound NOT metabolized,Compound NOT metabolized,Compound NOT metabolized,Compound NOT metabolized,Compound NOT metabolized,Compound NOT metabolized,Compound NOT metabolized,Compound NOT metabolized,Compound NOT metabolized,Compound NOT metabolized,Compound NOT metabolized,Compound NOT metabolized,CN1[C@@H]2CC[C@H]1C[C@@H](OC(=O)c1c[nH]c3ccccc13)C2 [TROPISETRON],,Compound NOT metabolized

# The remaining lines, values behind:
SMILES,Bacterial Biotransformation [1],Bacterial Biotransformation [2],Bacterial Biotransformation [3],Bacterial Biotransformation [4],Bacterial Biotransformation [5],Bacterial Biotransformation [6],Bacterial Biotransformation [7],Bacterial Biotransformation [8],Bacterial Biotransformation [9],Bacterial Biotransformation [10],Bacterial Biotransformation [12],Bacterial Biotransformation [13],Bacterial Biotransformation [14],Bacterial Biotransformation [15],Bacterial Biotransformation [16],Bacterial Biotransformation [17],Bacterial Biotransformation [18],Bacterial Biotransformation [19],Bacterial Biotransformation [11],Bacterial Biotransformation [20]
CC(=O)CC(c1ccccc1)c1c(O)c2ccccc2oc1=O (stereo unspecified) [WARFARIN],Compound NOT metabolized,Compound NOT metabolized,Compound NOT metabolized,Compound metabolized,Compound NOT metabolized,Compound NOT metabolized,Compound NOT metabolized,Compound NOT metabolized,Compound NOT metabolized,Compound NOT metabolized,Compound NOT metabolized,Compound NOT metabolized,Compound NOT metabolized,Compound NOT metabolized,Compound NOT metabolized,Compound NOT metabolized,,Compound NOT metabolized,Compound NOT metabolized,Compound NOT metabolized
CS(=O)(=O)O.O.O.O.O=C1Cc2cc(CCN3CCN(c4nsc5ccccc45)CC3)c(Cl)cc2N1 [ZIPRASIDONE MESYLATE],Compound NOT metabolized,Compound NOT metabolized,Compound NOT metabolized,Compound NOT metabolized,Compound NOT metabolized,,Compound NOT metabolized,Compound NOT metabolized,,Compound NOT metabolized,Compound NOT metabolized,Compound metabolized,Compound NOT metabolized,Compound NOT metabolized,Compound NOT metabolized,Compound NOT metabolized,Compound NOT metabolized,Compound NOT metabolized,Compound NOT metabolized,Compound NOT metabolized

# — ChEMBL document CHEMBL5303573, “Mapping human microbiome drug metabolism by gut bacteria and their genes” (Nature, 2019)
